Measurements taken from the supplement of paper PMC10307832.

Experiments:
Assay in all cases: relative viability (nuclei count vs DMSO), 5 days (fraction); higher = more cells survive
[1] = test system: NCI-H1666
Summary of the method: (§1)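 A single step with final 0.05% Triton X-100, 1% formaldehyde and 1 ug/ml Hoechst fixed the cells and stained nuclei 5 days after treatment. Lung cancer cell lines in 1536-well plates had been treated by pin tool the day after seeding with one drug alone or a fixed anchor-drug dose plus five library-drug doses (not always all listed) in √10 steps, and nuclei were counted on 4× images. Relative viability is the ratio of nuclei in treated wells to nuclei in vehicle wells, taken as the median of duplicate plates.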

[2] = test system: NCI-H1650
Summary of the method: as §1

[3] = test system: NCI-H2170
Summary of the method: as §1

[4] = test system: SW 900
Summary of the method: as §1

[5] = test system: EKVX
Summary of the method: as §1

[6] = test system: PC-14
Summary of the method: as §1

[7] = test system: CAL-12T
Summary of the method: as §1

[8] = test system: NCI-H727
Summary of the method: as §1

[9] = test system: NCI-H441
Summary of the method: as §1

[10] = test system: ABC-1
Summary of the method: as §1

[11] = test system: NCI-H460
Summary of the method: as §1

[12] = test system: NCI-H661
Summary of the method: as §1

[13] = test system: NCI-H1437
Summary of the method: as §1

[14] = test system: LK-2
Summary of the method: as §1

[15] = test system: HARA
Summary of the method: as §1

[16] = test system: 201T
Summary of the method: as §1

[17] = test system: NCI-H3122
Summary of the method: as §1

[18] = test system: COR-L 105
Summary of the method: as §1

[19] = test system: BEN
Summary of the method: as §1

[20] = test system: NCI-H2009
Summary of the method: as §1

[21] = test system: LOU-NH91
Summary of the method: as §1

`Nc1ccn([C@@H]2O[C@H](CO)[C@@H](O)[C@@H]2O)c(=O)n1` [Cytarabine] + CCNC(=O)c1noc(-c2cc(C(C)C)c(O)cc2O)c1-c1ccc(CN2CCOCC2)cc1 [Luminespib] (partner 0.01 µM) was tested, and the relative viability ([1]; first compound 0.005 µM) was 1.01, the relative viability ([1]; first compound 0.01581 µM) was 0.94 and the relative viability ([1]; first compound 0.05 µM) was 0.675. The relative viability ([1]; first compound 0.1581 µM) was 0.539, the relative viability ([1]; first compound 0.5 µM) was 0.579 and the relative viability ([2]; first compound 0.005 µM) was 0.208. The relative viability ([2]; first compound 0.01581 µM) was 0.181, the relative viability ([2]; first compound 0.05 µM) was 0.254 and the relative viability ([2]; first compound 0.1581 µM) was 0.218. It also gave a relative viability ([2]; first compound 0.5 µM) of 0.209, a relative viability ([3]; first compound 0.005 µM) of 0.761 and a relative viability ([3]; first compound 0.01581 µM) of 0.431. For the same compound, the relative viability ([3]; first compound 0.05 µM) was 0.248, the relative viability ([3]; first compound 0.1581 µM) was 0.23 and the relative viability ([3]; first compound 0.5 µM) was 0.158. For the same compound, the relative viability ([4]; first compound 0.005 µM) was 0.16, the relative viability ([4]; first compound 0.01581 µM) was 0.184 and the relative viability ([4]; first compound 0.05 µM) was 0.186. It also gave a relative viability ([4]; first compound 0.1581 µM) of 0.142, a relative viability ([4]; first compound 0.5 µM) of 0.137 and a relative viability ([5]; first compound 0.005 µM) of 0.918. The relative viability ([5]; first compound 0.01581 µM) was 0.743, the relative viability ([5]; first compound 0.05 µM) was 0.736 and the relative viability ([5]; first compound 0.1581 µM) was 0.287. For the same compound, the relative viability ([5]; first compound 0.5 µM) was 0.186, the relative viability ([6]; first compound 0.005 µM) was 0.172 and the relative viability ([6]; first compound 0.01581 µM) was 0.133. It also gave a relative viability ([6]; first compound 0.05 µM) of 0.131, a relative viability ([6]; first compound 0.1581 µM) of 0.131 and a relative viability ([6]; first compound 0.5 µM) of 0.0979. The relative viability ([7]; first compound 0.005 µM) was 0.227, the relative viability ([7]; first compound 0.01581 µM) was 0.288 and the relative viability ([7]; first compound 0.05 µM) was 0.64. The relative viability ([7]; first compound 0.1581 µM) was 0.217, the relative viability ([7]; first compound 0.5 µM) was 0.178 and the relative viability ([8]; first compound 0.005 µM) was 0.22. It also gave a relative viability ([8]; first compound 0.01581 µM) of 0.527, a relative viability ([8]; first compound 0.05 µM) of 0.475 and a relative viability ([8]; first compound 0.1581 µM) of 0.341. The relative viability ([8]; first compound 0.5 µM) was 0.309, the relative viability ([9]; first compound 0.005 µM) was 0.283 and the relative viability ([9]; first compound 0.01581 µM) was 0.252. For the same compound, the relative viability ([9]; first compound 0.05 µM) was 0.354, the relative viability ([9]; first compound 0.1581 µM) was 0.266 and the relative viability ([9]; first compound 0.5 µM) was 0.271. For the same compound, the relative viability ([10]; first compound 0.005 µM) was 0.732, the relative viability ([10]; first compound 0.01581 µM) was 0.624 and the relative viability ([10]; first compound 0.05 µM) was 0.712. It also gave a relative viability ([10]; first compound 0.1581 µM) of 0.381, a relative viability ([10]; first compound 0.5 µM) of 0.281 and a relative viability ([11]; first compound 0.005 µM) of 0.036. The relative viability ([11]; first compound 0.01581 µM) was 0.0332, the relative viability ([11]; first compound 0.05 µM) was 0.0248 and the relative viability ([11]; first compound 0.1581 µM) was 0.0172. It also gave a relative viability ([11]; first compound 0.5 µM) of 0.0144, a relative viability ([12]; first compound 0.005 µM) of 0.805 and a relative viability ([12]; first compound 0.01581 µM) of 0.873. It also gave a relative viability ([12]; first compound 0.05 µM) of 0.766, a relative viability ([12]; first compound 0.1581 µM) of 0.511 and a relative viability ([12]; first compound 0.5 µM) of 0.37. It also gave a relative viability ([13]; first compound 0.005 µM) of 0.86, a relative viability ([13]; first compound 0.01581 µM) of 0.852 and a relative viability ([13]; first compound 0.05 µM) of 0.571. The relative viability ([13]; first compound 0.1581 µM) was 0.301, the relative viability ([13]; first compound 0.5 µM) was 0.23 and the relative viability ([14]; first compound 0.005 µM) was 0.193. For the same compound, the relative viability ([14]; first compound 0.01581 µM) was 0.187, the relative viability ([14]; first compound 0.05 µM) was 0.197 and the relative viability ([14]; first compound 0.1581 µM) was 0.155. For the same compound, the relative viability ([14]; first compound 0.5 µM) was 0.176, the relative viability ([15]; first compound 0.005 µM) was 0.898 and the relative viability ([15]; first compound 0.01581 µM) was 0.303. The relative viability ([15]; first compound 0.05 µM) was 0.27, the relative viability ([15]; first compound 0.1581 µM) was 0.1 and the relative viability ([15]; first compound 0.5 µM) was 0.0906. It also gave a relative viability ([16]; first compound 0.005 µM) of 1.09, a relative viability ([16]; first compound 0.01581 µM) of 1.12 and a relative viability ([16]; first compound 0.05 µM) of 1.14. For the same compound, the relative viability ([16]; first compound 0.1581 µM) was 0.982, the relative viability ([16]; first compound 0.5 µM) was 0.974 and the relative viability ([17]; first compound 0.005 µM) was 0.0849. It also gave a relative viability ([17]; first compound 0.01581 µM) of 0.0661, a relative viability ([17]; first compound 0.05 µM) of 0.0881 and a relative viability ([17]; first compound 0.1581 µM) of 0.0776. It also gave a relative viability ([17]; first compound 0.5 µM) of 0.0754, a relative viability ([18]; first compound 0.005 µM) of 0.783 and a relative viability ([18]; first compound 0.01581 µM) of 0.667. The relative viability ([18]; first compound 0.05 µM) was 0.739, the relative viability ([18]; first compound 0.1581 µM) was 0.405 and the relative viability ([18]; first compound 0.5 µM) was 0.278. It also gave a relative viability ([19]; first compound 0.005 µM) of 0.178, a relative viability ([19]; first compound 0.01581 µM) of 0.324 and a relative viability ([19]; first compound 0.05 µM) of 0.247. For the same compound, the relative viability ([19]; first compound 0.1581 µM) was 0.178, the relative viability ([19]; first compound 0.5 µM) was 0.122 and the relative viability ([20]; first compound 0.005 µM) was 0.995. It also gave a relative viability ([20]; first compound 0.01581 µM) of 1.06, a relative viability ([20]; first compound 0.05 µM) of 1.04 and a relative viability ([20]; first compound 0.1581 µM) of 0.775. It also gave a relative viability ([20]; first compound 0.5 µM) of 0.239, a relative viability ([21]; first compound 0.005 µM) of 0.362 and a relative viability ([21]; first compound 0.01581 µM) of 0.361. For the same compound, the relative viability ([21]; first compound 0.05 µM) was 0.321, the relative viability ([21]; first compound 0.1581 µM) was 0.316 and the relative viability ([21]; first compound 0.5 µM) was 0.317.
